Measurements published in US8969350B2, “Pharmaceutical product comprising a p38 kinase inhibitor and a second active ingredient” (Astrazeneca AB, priority 2008, dated 2015).
Counter-ions that a name gives are not always drawn. Like-named read-outs stand apart in the source and are kept apart here. Each block holds one compound with its values, some of them ahead of it.

Experiments:
[1] = system: LPS stimulated TNFα production from human PBMC; experiment: Inhibition of LPS-induced TNFα production in human peripheral blood mononuclear cells (FLISA); assay type: cell-based; conditions: Compound A alone, n=17, read-out: pIC50 for inhibition of LPS-induced TNFα production from human PBMC (converted)
Experimental: After the pre-incubation period, the cells were then incubated with LPS (1 μg/mL) for 4 hr at 37° C. to induce TNFα production. The total assay volume was 200 μL. At the end of the incubation period, 25 μL of the culture supernatant was analysed to quantify the TNFα released using a Flourescence-linked immunosorbance assay (FLISA). Fluorescence levels were read on an FMAT plate reader. Inhibition curves were fitted using a 4-parameter logistic equation in a non-linear curve fitting routine and activity was expressed as pIC50.

[2] = system: guinea pig trachea; experiment: Guinea-pig isolated tracheal ring, Protocol A: relaxation of methacholine pre-contracted rings; conditions: mean ± s.e. mean, n=4; for EC50: Cavia porcellus
Experimental: (§1) Guinea-pigs (300-600 g) were killed by cervical dislocation and the trachea removed. After clearing the adherent connective tissue, the trachea was cut into segments (2-3 cartilage rings in width) and suspended in 10 ml organ baths containing modified Krebs' solution (mM; NaCl, 90; NaHCO3, 45; KCl, 5; MgSO4.7H2O, 0.5; Na2HPO4.2H2O, 1; CaCl2, 2.25; glucose, 10; pH 7.4, gassed with 5% CO2, 95% O2 at 37° C.). The tracheal rings were attached to an isometric force transducer for the measurement of isometric tension. The tissues were washed and a force of 1 g was applied to each tissue.
(§2) Protocol A: The rings were pre-contracted with methacholine (1 μM) and a cumulative (0.3 nM-3 μM) isoprenaline concentration effect curve constructed. The rings were washed and either Compound A (4 nM) or vehicle was added. The rings were then contracted with a second concentration of methacholine (1 μM). Once the contraction had reached a plateau cumulative concentration response curves to Compound C (0.1 nM-1 μM), Compound E (1 nM-1 μM) or Compound H (0.1 nM-1 μM) were constructed. Data were collected using the ADInstruments chart4 software, the maximum tension generated at each concentration of agonist was recorded and the response expressed as percentage relaxation (mean±s.e.mean). The data was fitted to a four parameter logistic and a potency value (pEC50) generated (expressed as mean±s.e.mean). Protocol B: A cumulative concentration effect curve to methacholine (3 nM-30 μM) was constructed and then the tissue was washed. […] A second extended cumulative concentration response curve to methacholine was constructed (3 nM-1 mM). Data were collected using the ADInstruments chart4 software, the maximum tension generated at each concentration of agonist was recorded and the results were expressed as percentage of the maximum response measured in the first curve.

[3] = system: guinea pig trachea; experiment: Guinea-pig isolated tracheal ring, Protocol B: shift of methacholine concentration response curve (apparent pA2); conditions: mean ± s.e. mean, n=4; for pA2 in the presence of Compound A: apparent pA2 vs methacholine in the presence of Compound A (4 nM); for pA2 value: apparent pA2 vs methacholine, compound alone, Schild plot slope of 1 assumed
Experimental: as §1
as §2, with “Once the contraction had reached a plateau cumulative concentration response curves to Compound C (0.1 nM-1 μM), Compound E (1 nM-1 μM) or Compound H (0.1 nM-1 μM) were constructed.” left out

[4] = Water uptake by gravimetric vapour sorption (GVS); assay type: physicochemical; conditions: between RH of 0%-80%, as measured by GVS
Experimental: GVS profiles were measured using a Dynamic Vapour Sorption DVS-1 instrument. The solid sample ca. 1-5 mg was placed into a glass vessel and the weight of the sample was recorded during a dual cycle step method (40 to 90 to 0 to 90 to 0% relative humidity (RH), in steps of 10% RH).

[5] = compound alone (vehicle), relaxation of rings contracted with methacholine 1 μM, read-out: pEC50 value (converted)

Compound: CNCCOc1ccccc1C1(Nc2nccn(-c3cc(C(=O)NC4CC4)cc(F)c3C)c2=O)CC1 [Compound A, N-cyclopropyl-3-fluoro-4-methyl-5-[3-[[1-[2-[2-(methylamino)ethoxy]phenyl]cyclopropyl]amino]-2-oxo-pyrazin-1-yl]benzamide]
IC50 [1]: 7.94 nM

EC50 [2, 5]: 10 nM | pEC50 value ([2]; compound alone (vehicle), relaxation of rings contracted with methacholine 1 μM, dihydrobromide): 8.0 ± 0.05
Compound: CCN(CC)CCN(CCNCCc1ccc(O)c2[nH]c(=O)sc12)C(=O)CCOCCc1cccc2ccccc12 [Compound C, N-[2-(diethylamino)ethyl]-N-(2-{[2-(4-hydroxy-2-oxo-2,3-dihydro-1,3-benzothiazol-7-yl)ethyl]amino}ethyl)-3-[2-(1-naphthyl)ethoxy]propanamide dihydrobromide]

Compound: O=C(O[C@H]1C[N+]2(CCCOc3ccccc3)CCC1CC2)C(O)(c1cccs1)c1cccs1 [Compound D, [(3R)-1-(3-phenoxypropyl)quinuclidin-1-ium-3-yl]2-hydroxy-2,2-bis(2-thienyl)acetate bromide, reference compound]
pA2 in the presence of Compound A [3]: 10.5±0.07 | pA2 value [3]: 10.7±0.09

EC50 [2, 5]: 15.8 nM | EC50 ([2]; in the presence of Compound A (4 nM), rings contracted with methacholine 1 μM, read-out: pEC50 in the presence of Compound A (converted)): 20 nM
Compound: CCc1cc2c(cc1CC)CC(NC[C@H](O)c1ccc(O)c3[nH]c(=O)ccc13)C2 [Compound E, 5-[(1R)-2-[(5,6-diethylindan-2-yl)amino]-1-hydroxy-ethyl]-8-hydroxy-1H-quinolin-2-one maleate, reference compound]

EC50 [2, 5]: 0.631 nM | pEC50 in the presence of Compound A ([2]; in the presence of Compound A (4 nM), rings contracted with methacholine 1 μM): 9.2±0.10
Compound: O=C(CCNCCc1cccc(F)c1)N(CCNCCc1ccc(O)c2[nH]c(=O)sc12)C1CCCCC1 [Compound H, N-Cyclohexyl-N^3-[2-(3-fluorophenyl)ethyl]-N-(2-{[2-(4-hydroxy-2-oxo-2,3-dihydro-1,3-benzothiazol-7-yl)ethyl]amino}ethyl)-β-alaninamide di-D-mandelate]

Compound: C[C@@](C(=O)O[C@H]1C[N+]2(CCc3ccc(F)cc3)CCC1CC2)(c1ccccc1)N1CCCCC1 [Compound J, (R)-1-[2-(4-fluoro-phenyl)-ethyl]-3-((S)-2-phenyl-2-piperidin-1-yl-propionyloxy)-1-azonia-bicyclo[2.2.2]octane 4-methylbenzenesulfonate]
pA2 in the presence of Compound A ([3]; 4-methylbenzenesulfonate): 10.1±0.10 | pA2 value ([3]; 4-methylbenzenesulfonate): 9.9±0.12

Compound: O=C(C[N+]12CCC(CC1)[C@@H](OC(=O)C1(c3ccccc3)CCCCCC1)C2)Nc1ccccn1 [Compound K, ((R)-3-(1-phenyl-cycloheptanecarbonyloxy)-1-(pyridin-2-ylcarbamoylmethyl)-1-azonia-bicyclo[2.2.2]octane bromide]
pA2 in the presence of Compound A [3]: 9.9±0.15 | pA2 value [3]: 9.9±0.10

Compound: C[N+]1(C)[C@@H]2C[C@@H](OC(=O)C(O)(c3cccs3)c3cccs3)C[C@H]1[C@@H]1O[C@@H]12 [Compound M, (1R,2R,4S,5S,7S)-7-{[hydroxy(dithiophen-2-yl)acetyl]oxy}-9,9-dimethy-3-oxa-9-azoniatricyclo[3.3.1.0~2,4~]nonane bromide, reference compound]
pA2 in the presence of Compound A [3]: 12.0±0.08

water uptake [4]: 0.4%
Compound: CNCCOc1ccccc1C1(Nc2nccn(-c3cc(C(=O)NC4CC4)cc(F)c3C)c2=O)CC1 [preparation 1 crystalline form A, N-Cyclopropyl-3-fluoro-4-methyl-5-[3-[[1-[2-[2-(methylamino)ethoxy]phenyl]cyclopropyl]amino]-2-oxo-1(2H)-pyrazinyl]-benzamide Crystalline Form A]
